Measurements taken from BindingDB's records for patent US10934302 (Relay Therapeutics, 2021).

Molecular target: T1, Tyrosine-protein phosphatase non-receptor type 11 (Homo sapiens, UniProt Q06124)
T1 sequence (Q06124 whole entry): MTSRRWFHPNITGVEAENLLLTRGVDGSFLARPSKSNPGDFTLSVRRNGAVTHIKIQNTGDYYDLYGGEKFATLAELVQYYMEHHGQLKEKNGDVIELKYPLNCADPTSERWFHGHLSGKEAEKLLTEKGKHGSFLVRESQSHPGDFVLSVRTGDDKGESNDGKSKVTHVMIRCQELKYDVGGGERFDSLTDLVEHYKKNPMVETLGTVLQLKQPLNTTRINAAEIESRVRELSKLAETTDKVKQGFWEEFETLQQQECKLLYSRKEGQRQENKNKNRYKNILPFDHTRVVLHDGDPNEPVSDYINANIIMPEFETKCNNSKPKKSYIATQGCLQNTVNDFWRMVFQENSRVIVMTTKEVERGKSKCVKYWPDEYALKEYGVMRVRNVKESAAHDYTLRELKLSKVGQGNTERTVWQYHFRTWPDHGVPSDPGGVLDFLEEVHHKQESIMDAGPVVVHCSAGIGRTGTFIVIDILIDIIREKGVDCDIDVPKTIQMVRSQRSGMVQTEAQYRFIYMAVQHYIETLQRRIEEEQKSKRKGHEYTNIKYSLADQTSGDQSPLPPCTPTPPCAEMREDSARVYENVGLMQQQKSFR
Experiment: Allosteric Inhibition Assay

IC50 [nM]	Structure (SMILES)
< 50	N[C@@H]1c2ccccc2CC12CCN(c1cnc(/C(=N/O)c3ccccc3)cn1)CC2 [US10934302, Example 257]
< 50	Cc1cc(C(=O)N2CCC3(CC2)Cc2ccccc2[C@H]3N)nn1-c1ccc(F)cc1F [US10934302, Example 289]

Structure (SMILES)	IC50 [nM]
N[C@@H]1c2ccccc2CC12CCN(c1cnc(SCC3CC3)cn1)CC2 [US10934302, Example 266]	< 50
